Holding throughout (assay type): cell-based
The target of assay [1] is T1, human dopamine transporter/SLC6A3 (DAT) (Homo sapiens, UniProt Q01959).
T1 construct: expressed in transfected cells; host or cells: HEK293
Put plainly: Cellular uptake experiments: [3H]-dopamine reuptake inhibition in transporter-expressing HEK293 cells. The settings on record: for IC50: cells stably expressing DAT, [3H]-dopamine 1 µM, screening cut-off 50 µM. The protocol:
(§1) Cell culture. Human embryonic kidney (HEK) 293 or SK-N-MC (human neuroblastoma) cells were grown in minimum essential medium with Earle’s salts and L-glutamine, 10% heat-inactivated fetal bovine serum, and 50 mg/L gentamicin. Cells were grown in 100- or 60-mm diameter tissue culture dishes (polystyrene, Falcon) at 37 °C under an atmosphere of 5% CO2/95% air. The human dopamine transporter/SLC6A3 (DAT), noradrenaline transporter/SLC6A2 (NET), or human serotonin transporter/SLC6A4 (SERT) cDNA was stably expressed using methods as described previously.
(§2) Cellular uptake experiments. The transporter-expressing HEK293 cells were seeded in poly-D-lysine-coated 24-well plates (1 × 10^5 cells/well) and, one day later, each well was washed with 0.5 mL uptake buffer and incubated with 0.5 mL buffer containing various concentrations of the drugs. Uptake was started by the addition of [^3H]-dopamine, [^3H]-noradrenaline, or [^3H]-serotonin at a final concentration of 1 µM (specific activity 0.14 Ci/mmol) after 5 min of preincubation. After incubation for 2.5 min (SERT-cells: 5 min) at 25 °C, it was stopped by aspirating the uptake buffer and washing each well twice with 1 mL ice-cold buffer. Nonspecific uptake was determined in the presence of 10 µM mazindol (DAT- and NET-cells) or 10 µM clomipramine (SERT-cells). The radioactivity remaining in each well was determined by incubating with 0.4 mL 1% sodium dodecyl sulphate and transferring this solution into scintillation vials containing 3 mL of scintillation cocktail (Ultima Gold MV, Packard, Dovners Grove, IL, USA). The uptake buffer consisted of (mmol/L): 4 Tris–HCl; 6.25 4-(2-hydroxyethyl)-1-piperazineethanesulfonic acid (HEPES); 120 NaCl; 5 KCl; 1.2 CaCl2; 1.2 MgSO4; 5.6 D-glucose; 0.5 ascorbic acid; pH 7.1.

Assay [2] deals with T2, noradrenaline transporter/SLC6A2 (NET) (Homo sapiens, UniProt P23975).
T2 construct: expressed in transfected cells; host or cells: HEK293
In words: Cellular uptake experiments: [3H]-noradrenaline reuptake inhibition in transporter-expressing HEK293 cells. The protocol: as §1, §2

In assay [3] the target is T3, human serotonin transporter/SLC6A4 (SERT) (Homo sapiens, UniProt P31645).
T3 construct: expressed in transfected cells; host or cells: HEK293
In words: Cellular uptake experiments: [3H]-serotonin reuptake inhibition in transporter-expressing HEK293 cells. On the procedure:
as §1, §2

The mark [4] stands for this setting: Reuptake Inhibition (IC50 ± SE, µM) DAT.
The mark [5] stands for this setting: at 50 µM / tested concentration range.
Where [6] appears, read: read-out: Reuptake Inhibition (IC50 ± SE, µM) NET; cells stably expressing NET; [3H]-noradrenaline 1 µM; screening cut-off 50 µM.
Setting [7] is: read-out: Reuptake Inhibition (IC50 ± SE, µM) SERT; cells stably expressing SERT; [3H]-serotonin 1 µM; screening cut-off 50 µM.
The mark [8] stands for this setting: Reuptake Inhibition (IC50 ± SE, µM) NET, cells stably expressing NET; [3H]-noradrenaline 1 µM; screening cut-off 50 µM.
Where [9] appears, read: Reuptake Inhibition (IC50 ± SE, µM) SERT, cells stably expressing SERT; [3H]-serotonin 1 µM; screening cut-off 50 µM.
Where [10] appears, read: read-out: Reuptake Inhibition (IC50 ± SE, µM) DAT.
Setting [11] is: cells stably expressing NET; [3H]-noradrenaline 1 µM; screening cut-off 50 µM; read-out: Reuptake Inhibition (IC50 ± SE, µM) NET.
The mark [12] stands for this setting: cells stably expressing SERT; [3H]-serotonin 1 µM; screening cut-off 50 µM; read-out: Reuptake Inhibition (IC50 ± SE, µM) SERT.

Consider 26 compounds from publication PMC10527105, “Chirality Matters: Fine-Tuning of Novel Monoamine Reuptake Inhibitors Selectivity through Manipulation of Stereochemistry” (Biomolecules, 2023).

Read-outs that look alike come from different tables or passages of the source.

For orientation: IC50 means the concentration that inhibits the measured activity by half.

T1 sequence (Q01959 whole entry): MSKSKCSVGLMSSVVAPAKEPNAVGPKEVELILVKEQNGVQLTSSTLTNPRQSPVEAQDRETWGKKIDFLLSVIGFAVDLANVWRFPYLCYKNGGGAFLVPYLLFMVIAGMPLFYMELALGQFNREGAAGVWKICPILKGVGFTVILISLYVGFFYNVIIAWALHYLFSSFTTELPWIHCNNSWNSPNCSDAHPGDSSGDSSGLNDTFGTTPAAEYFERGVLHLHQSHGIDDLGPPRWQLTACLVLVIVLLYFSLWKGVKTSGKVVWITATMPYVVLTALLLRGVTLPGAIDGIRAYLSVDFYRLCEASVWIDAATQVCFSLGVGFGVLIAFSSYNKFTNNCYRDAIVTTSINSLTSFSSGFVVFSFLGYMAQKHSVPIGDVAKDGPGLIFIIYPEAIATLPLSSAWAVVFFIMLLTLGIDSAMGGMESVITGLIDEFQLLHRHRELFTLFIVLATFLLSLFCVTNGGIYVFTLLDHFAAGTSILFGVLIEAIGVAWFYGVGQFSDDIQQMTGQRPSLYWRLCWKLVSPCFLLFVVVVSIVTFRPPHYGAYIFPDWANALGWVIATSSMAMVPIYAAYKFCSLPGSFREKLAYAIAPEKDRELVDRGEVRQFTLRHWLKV
T2 sequence (P23975 whole entry): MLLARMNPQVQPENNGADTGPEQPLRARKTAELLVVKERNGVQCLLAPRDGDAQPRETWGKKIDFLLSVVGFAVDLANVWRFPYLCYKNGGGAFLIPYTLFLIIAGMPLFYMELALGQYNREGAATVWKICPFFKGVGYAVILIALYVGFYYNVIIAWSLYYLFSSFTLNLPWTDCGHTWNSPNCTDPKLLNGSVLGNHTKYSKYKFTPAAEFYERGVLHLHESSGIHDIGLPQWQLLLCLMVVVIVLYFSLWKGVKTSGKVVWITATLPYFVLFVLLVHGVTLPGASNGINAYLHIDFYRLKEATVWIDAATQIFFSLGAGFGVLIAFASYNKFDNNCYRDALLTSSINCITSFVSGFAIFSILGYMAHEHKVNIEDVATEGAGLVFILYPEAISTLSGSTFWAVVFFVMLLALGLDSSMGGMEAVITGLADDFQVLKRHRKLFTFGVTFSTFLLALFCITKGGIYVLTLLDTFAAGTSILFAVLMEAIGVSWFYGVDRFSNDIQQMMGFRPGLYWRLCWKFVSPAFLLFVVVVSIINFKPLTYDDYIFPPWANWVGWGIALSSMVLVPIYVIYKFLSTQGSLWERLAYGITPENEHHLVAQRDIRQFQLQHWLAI
T3 sequence (P31645 whole entry): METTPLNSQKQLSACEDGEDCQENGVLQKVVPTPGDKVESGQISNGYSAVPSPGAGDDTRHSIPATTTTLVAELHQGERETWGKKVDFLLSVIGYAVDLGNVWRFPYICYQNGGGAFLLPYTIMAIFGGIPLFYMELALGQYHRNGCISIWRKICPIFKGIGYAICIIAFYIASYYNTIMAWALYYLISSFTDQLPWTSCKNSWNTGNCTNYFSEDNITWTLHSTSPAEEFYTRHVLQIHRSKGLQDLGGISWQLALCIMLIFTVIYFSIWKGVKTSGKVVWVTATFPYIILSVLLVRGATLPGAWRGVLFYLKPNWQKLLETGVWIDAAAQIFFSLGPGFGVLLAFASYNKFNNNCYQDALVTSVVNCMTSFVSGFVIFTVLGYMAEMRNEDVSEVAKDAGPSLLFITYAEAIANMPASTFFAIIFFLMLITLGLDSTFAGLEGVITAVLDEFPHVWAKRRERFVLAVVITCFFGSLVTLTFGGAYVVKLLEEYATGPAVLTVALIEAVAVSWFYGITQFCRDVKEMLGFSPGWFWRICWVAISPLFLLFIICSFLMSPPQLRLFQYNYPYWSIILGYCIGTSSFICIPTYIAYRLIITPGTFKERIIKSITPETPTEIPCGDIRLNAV

`[O-][S+](Cc1cccs1)C(c1ccccc1)c1ccccc1Br` (stereo not drawn) [Compound 7g, 2-((((2-bromophenyl)(phenyl)methyl)sulfinyl)methyl)thiophene]: the IC50 in assay [1] (setting [4]), in assay [2] (setting [6]) and in assay [3] (setting [7]) was > 50 µM in each case. For the same compound, the “activity on DAT (reuptake inhibition), in words” value in assay [1] (at 50 µM) was “no effect”. Further, the “activity on NET (reuptake inhibition), in words” value in assay [2] (setting [5]) is on record as “no effect”. In assay [3] (setting [5]), the “activity on SERT (reuptake inhibition), in words” value is “no effect”.
As for `[O-][S+](Cc1cccs1)C(c1ccccc1)c1ccccc1I` (stereo not drawn) [Compound 7i, 2-((((2-iodophenyl)(phenyl)methyl)sulfinyl)methyl)thiophene], the IC50 in assay [1] (setting [4]) was 28.4 ± 2.8 µM; in assay [2] (setting [6]) it was > 50 µM; in assay [3] (setting [7]), > 50 µM.
Consider `[O-][S+](Cc1cccs1)C(c1ccccc1)c1cccc(I)c1` (stereo not drawn) [Compound 7j, 2-((((3-iodophenyl)(phenyl)methyl)sulfinyl)methyl)thiophene], for which the IC50 was 1.46 ± 0.06 µM in assay [1] (setting [4]), > 50 µM in assay [2] (setting [6]) and > 50 µM in assay [3] (setting [7]).
With `[O-][S@@+](Cc1cccs1)[C@@H](c1ccccc1)c1ccc(I)cc1` [Compound 7k, (S,S)-2-((((4-iodophenyl)(phenyl)methyl)sulfinyl)methyl)thiophene], the IC50 in assay [1] (setting [4]), in assay [2] (setting [8]) and in assay [3] (setting [9]) was > 50 µM throughout.
Take `Cc1ccccc1C(c1ccccc1)[S+]([O-])Cc1cccs1` (stereo not drawn) [Compound 7l, 2-(((phenyl(o-tolyl)methyl)sulfinyl)methyl)thiophene]: the results for the IC50 in assay [1] (setting [10]), in assay [2] (setting [11]) and in assay [3] (setting [12]) were 3.8 ± 0.5 µM, > 50 µM and > 50 µM, respectively.
On to `Cc1cccc([C@H](c2ccccc2)[S@@+]([O-])Cc2cccs2)c1` [Compound 7m, (S,S)-2-(((phenyl(m-tolyl)methyl)sulfinyl)methyl)thiophene], for which the IC50 in assay [1] (setting [4]) was 1.2 ± 0.09 µM; in assay [2] (setting [8]), 49 ± 3 µM; in assay [3] (setting [9]), > 50 µM.
On to `Cc1ccc([C@H](c2ccccc2)[S@@+]([O-])Cc2cccs2)cc1` [Compound 7n, (S,S)-2-(((phenyl(p-tolyl)methyl)sulfinyl)methyl)thiophene], for which the values for the IC50 in assay [1] (setting [10]), in assay [2] (setting [8]) and in assay [3] (setting [12]) were 1.63 ± 0.1 µM, > 50 µM and > 50 µM, respectively.
Take `[O-][S+](Cc1cccs1)C(c1ccccc1)c1ccccc1C(F)(F)F` (stereo not drawn) [Compound 7o, 2-(((phenyl(2-(trifluoromethyl)phenyl)methyl)sulfinyl)methyl)thiophene]: the IC50 in assay [1] (setting [4]), in assay [2] (setting [8]) and in assay [3] (setting [7]) was > 50 µM throughout.
In the case of `[O-][S+](Cc1cccs1)C(c1ccccc1)c1cccc(C(F)(F)F)c1` (stereo not drawn) [Compound 7p, 2-(((phenyl(3-(trifluoromethyl)phenyl)methyl)sulfinyl)methyl)thiophene], the IC50 is 10 ± 1 µM in assay [1] (setting [4]), > 50 µM in assay [2] (setting [6]) and > 50 µM in assay [3] (setting [9]).
As to `[O-][S+](Cc1cccs1)C(c1ccccc1)c1ccc(C(F)(F)F)cc1` (stereo not drawn) [Compound 7q, 2-(((phenyl(4-(trifluoromethyl)phenyl)methyl)sulfinyl)methyl)thiophene], the IC50 was 24 ± 1 µM in assay [1] (setting [4]), > 50 µM in assay [2] (setting [6]) and > 50 µM in assay [3] (setting [9]).
As for `COc1ccccc1[C@@H](c1ccccc1)[S@@+]([O-])Cc1cccs1` [Compound 7r, (S,R)-2-((((2-methoxyphenyl)(phenyl)methyl)sulfinyl)methyl)thiophene], the IC50 was 1.7 ± 0.1 µM in assay [1] (setting [4]), > 50 µM in assay [2] (setting [8]) and > 50 µM in assay [3] (setting [9]).
Turning to `COc1cccc(C(c2ccccc2)[S+]([O-])Cc2cccs2)c1` (stereo not drawn) [Compound 7s, 2-((((3-methoxyphenyl)(phenyl)methyl)sulfinyl)methyl)thiophene], the IC50 is 1.56 ± 0.24 µM in assay [1] (setting [4]), > 50 µM in assay [2] (setting [6]) and > 50 µM in assay [3] (setting [9]).
Turning to `COc1ccc([C@@H](c2ccccc2)[S@@+]([O-])Cc2cccs2)cc1` [Compound 7t, (S,R)-2-((((4-methoxyphenyl)(phenyl)methyl)sulfinyl)methyl)thiophene], the IC50 in assay [1] (setting [4]) was 15 ± 2 µM; in assay [2] (setting [8]), > 50 µM; in assay [3] (setting [9]), > 50 µM.
As to `[O-][S+](Cc1cccs1)C(c1ccc(F)cc1)c1ccc(Cl)cc1` (stereo not drawn) [Compound 7u, 2-((((4-chlorophenyl)(4-fluorophenyl)methyl)sulfinyl)methyl)thiophene], the half-inhibitory concentration (IC50) in assay [1] (setting [4]) was 6.4 ± 0.4 µM; in assay [2] (setting [6]), > 50 µM; in assay [3] (setting [7]) it was > 50 µM.
For the compound `[O-][S@@+](Cc1cccs1)[C@H](c1ccccc1)c1ccccc1F` [Compound 8a, (S,R)-2-((((2-fluorophenyl)(phenyl)methyl)sulfinyl)methyl)thiophene], the IC50 in assay [1] (setting [10]) was 1.09 ± 0.07 µM; in assay [2] (setting [11]), > 50 µM; in assay [3] (setting [12]), > 50 µM.
In the case of `[O-][S+](Cc1cccs1)C(c1ccccc1)c1cccc(F)c1` (stereo not drawn) [Compound 8b, 2-((((3-fluorophenyl)(phenyl)methyl)sulfinyl)methyl)thiophene], the IC50 is 9 ± 3 µM in assay [1] (setting [10]), > 50 µM in assay [2] (setting [11]) and > 50 µM in assay [3] (setting [12]).
For the compound `[O-][S+](Cc1cccs1)C(c1ccccc1)c1ccc(F)cc1` (stereo not drawn) [Compound 8c, 2-((((4-fluorophenyl)(phenyl)methyl)sulfinyl)methyl)thiophene], the values for the half-inhibitory concentration (IC50) in assay [1] (setting [10]), in assay [2] (setting [11]) and in assay [3] (setting [12]) were 5.2 ± 0.1 µM, > 50 µM and 24 ± 6 µM, respectively.
The corresponding values for `[O-][S@@+](Cc1cccs1)[C@H](c1ccccc1)c1ccccc1Cl` [Compound 8d, (S,R)-2-((((2-chlorophenyl)(phenyl)methyl)sulfinyl)methyl)thiophene] are 2.55 ± 0.04 µM, > 50 µM and > 50 µM.
As to `[O-][S@+](Cc1cccs1)[C@H](c1ccccc1)c1cccc(Cl)c1` [Compound 8e, (R,R)-2-((((3-chlorophenyl)(phenyl)methyl)sulfinyl)methyl)thiophene], the IC50 in assay [1] (setting [4]) is 0.83 ± 0.16 µM; in assay [2] (setting [8]) it was 48 ± 6 µM; in assay [3] (setting [9]), 19 ± 1 µM.
The corresponding values for `[O-][S@+](Cc1cccs1)[C@H](c1ccccc1)c1ccc(Cl)cc1` [Compound 8f, (R,R)-2-((((4-chlorophenyl)(phenyl)methyl)sulfinyl)methyl)thiophene] are 4.9 ± 0.6 µM, > 50 µM and > 50 µM.
With `[O-][S+](Cc1cccs1)C(c1ccccc1)c1ccccc1Br` (stereo not drawn) [Compound 8g, 2-((((2-bromophenyl)(phenyl)methyl)sulfinyl)methyl)thiophene], the results for the IC50 in assay [1] (setting [4]), in assay [2] (setting [6]) and in assay [3] (setting [7]) were 5.06 ± 0.31 µM, > 50 µM and > 50 µM, respectively.
`[O-][S+](Cc1cccs1)C(c1ccccc1)c1ccccc1I` (stereo not drawn) [Compound 8i, 2-((((2-iodophenyl)(phenyl)methyl)sulfinyl)methyl)thiophene]: the IC50 in assay [1] (setting [4]) was 9.6 ± 1.2 µM; in assay [2] (setting [6]), > 50 µM; in assay [3] (setting [7]) it was > 50 µM.
As for `[O-][S+](Cc1cccs1)C(c1ccccc1)c1cccc(I)c1` (stereo not drawn) [Compound 8j, 2-((((3-iodophenyl)(phenyl)methyl)sulfinyl)methyl)thiophene], the IC50 in assay [1] (setting [4]) was 1.5 ± 0.17 µM; in assay [2] (setting [6]), > 50 µM; in assay [3] (setting [7]), > 50 µM.
For the compound `[O-][S@+](Cc1cccs1)[C@H](c1ccccc1)c1ccc(I)cc1` [Compound 8k, (R,R)-2-((((4-iodophenyl)(phenyl)methyl)sulfinyl)methyl)thiophene], the IC50 in assay [1] (setting [4]) was 2.6 ± 0.1 µM; in assay [2] (setting [8]) it was > 50 µM; in assay [3] (setting [9]) it was > 50 µM.
Take `Cc1ccccc1C(c1ccccc1)[S+]([O-])Cc1cccs1` (stereo not drawn) [Compound 8l, 2-(((phenyl(o-tolyl)methyl)sulfinyl)methyl)thiophene]: the IC50 in assay [1] (setting [10]) is 9.5 ± 0.9 µM; in assay [2] (setting [11]), > 50 µM; in assay [3] (setting [12]), > 50 µM.
As to `Cc1cccc([C@@H](c2ccccc2)[S@+]([O-])Cc2cccs2)c1` [Compound 8m, (R,R)-2-(((phenyl(m-tolyl)methyl)sulfinyl)methyl)thiophene], the IC50 is 1.56 ± 0.25 µM in assay [1] (setting [4]), > 50 µM in assay [2] (setting [8]) and > 50 µM in assay [3] (setting [9]).
